Data: patent publication US20090100532A1, “TRANSGENIC MICE EXPRESSING HYPERSENSITIVE NICOTINIC RECEPTORS” (CALIFORNIA INSTITUTE OF TECHNOLOGY, priority 2007, published 2009)
Several values for one entry are separate records, joined by “and”; a condition that tells them apart may be missing. Identical values can stand only once. Like-named read-outs stand apart in the source and are kept apart here.

How the values were obtained:
nAChRs = format: biochemical, mouse; details: for EC50: read-out: EC50 (±SEM), Total DA release
Description: (§1) Neurotransmitter Release from Striatal Synaptosomes. After a mouse was sacrificed by cervical dislocation, its brain was removed and placed immediately on an ice-cold platform and brain regions were dissected. Tissues from each mouse were homogenized in 0.5 ml of ice-cold 0.32 M sucrose buffered with 5 mM HEPES, pH 7.5. A crude synaptosomal pellet was prepared by centrifugation at 12,000 g for 20 min. The pellets were resuspended in “uptake buffer”: 128 mM NaCl, 2.4 mM KCl, 3.2 mM CaCl2, 1.2 mM KH2PO4, 1.2 mM MgSO4, 25 mM HEPES, pH 7.5, 10 mM glucose. For DA uptake, buffer was supplemented with 1 mM ascorbic acid and 0.01 mM pargyline, whereas for GABA uptake, buffer was supplemented with 1 mM aminooxyacetic acid. For [^3H]GABA uptake, synaptosomes were incubated for 10 min at 37° C. […] For DA uptake, synaptosomes were incubated at 37° C. in uptake buffer for 10 min before addition of 100 nM [^3H]dopamine (1 μCi for every 0.2 ml of synaptosomes), and the suspension was incubated for an additional 5 min.
(§2) All experiments were conducted at room temperature using methods described previously (Nashmi et al., 2007; Salminen et al., 2007) with modifications for collection into 96-well plates. In brief, aliquots of synaptosomes (80 μl) were distributed onto filters and perfused with buffer (uptake buffer containing 0.1% bovine serum albumin and 1 μM atropine with 1 μM nomifensine (for DA release) or 0.1 μM NNC-711 [1-(2-(((diphenylmethylene)amino)oxy)ethyl)-1,2,5,6-tetrahydro-3-pyridinecarboxylic acid hydrochloride]) (for GABA release) at 0.7 ml/min for 10 min, or buffer for 5 min followed by buffer with 50 nM αCtxMII. […] Fractions (−0.1 ml) were collected for 4 min into 96-well plates every 10 sec starting from 1 min before stimulation, using a Gilson FC204 fraction collector with a multicolumn adapter (Gilson, Inc.; Middleton, Wis.). Radioactivity was determined by scintillation counting using a 1450 MicroBeta Trilux scintillation counter (Perkin Elmer Life Sciences-Wallac Oy; Turku, Finland) after addition of 0.15 ml Optiphase ‘SuperMix’ scintillation cocktail. Instrument efficiency was 40%.
(§3) Data were analyzed using SigmaPlot 5.0 for DOS. Perfusion data were plotted as counts per minute versus fraction number. Fractions collected before and after the peak were used to calculate baseline as a single exponential decay. The calculated baseline was subtracted from the experimental data. Fractions that exceeded baseline by 10% or more were sunmmed to give total released cpm and then normalized to baseline to give units of release [(cpm-baseline)/baseline]. Agonist dose response data were fit to the Hill equation.

WT mice = details: mouse, in vivo
Description: (§4) Locomotor Activity. Mice used to study locomotion were eight to sixteen weeks old by the beginning of an experiment, and were back-crossed to C57BL/6 at least three times. […] Mouse horizontal locomotor activity was measured with an infrared photobeam activity cage system (San Diego Instruments; San Diego, Calif.). Ambulation events were recorded when two contiguous photobeams were broken in succession. Acute locomotor activity in response to nicotinic ligands or other agents was studied by recording ambulation events during four 15 sec intervals per minute for a designated number of minutes. For most experiments, groups of eight mice were placed in the activity cages (18×28 cm) and their baseline level of activity was recorded for eight minutes. Mice were removed from their cage, injected (100 μl per 25 g body mass), and returned to the cage within 15 sec. […] For generation of locomotor activity concentration-response relationship profiles, a group of mice was administered saline and, after five to eight days off, each successive dose of drug. […] For 48 h home cage monitoring, mice were isolated in their own cage and habituated to the test room and cage for 24 h. Following this, locomotor activity was recorded in 15 min intervals for 48 h.

α6^L9′S mice = details: mouse, in vivo
Description: as §4

α3β4β3 receptors = biological target: T1, α3β4β3 receptors (UniProt P12392+P32297); experiment: Two-electrode voltage clamp, X. laevis oocytes, α3β4β3; format: cell-based
T1 construct: expressed in transfected cells; host or cells: Xenopus laevis oocytes injected with cRNA
T1 sequence (P32297 32-505): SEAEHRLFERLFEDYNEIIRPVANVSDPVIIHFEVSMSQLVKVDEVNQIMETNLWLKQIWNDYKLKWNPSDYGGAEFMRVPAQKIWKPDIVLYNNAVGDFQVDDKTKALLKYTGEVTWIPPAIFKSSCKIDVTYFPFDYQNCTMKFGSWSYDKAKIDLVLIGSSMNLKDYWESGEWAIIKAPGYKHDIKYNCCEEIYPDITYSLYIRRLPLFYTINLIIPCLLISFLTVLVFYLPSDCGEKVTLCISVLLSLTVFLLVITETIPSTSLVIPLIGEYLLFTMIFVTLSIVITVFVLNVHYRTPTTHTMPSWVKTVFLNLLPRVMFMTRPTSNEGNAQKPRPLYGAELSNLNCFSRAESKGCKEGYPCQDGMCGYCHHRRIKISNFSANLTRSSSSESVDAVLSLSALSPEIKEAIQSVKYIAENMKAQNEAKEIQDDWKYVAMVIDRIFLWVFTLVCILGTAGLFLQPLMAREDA
T1 sequence (P12392 21-495): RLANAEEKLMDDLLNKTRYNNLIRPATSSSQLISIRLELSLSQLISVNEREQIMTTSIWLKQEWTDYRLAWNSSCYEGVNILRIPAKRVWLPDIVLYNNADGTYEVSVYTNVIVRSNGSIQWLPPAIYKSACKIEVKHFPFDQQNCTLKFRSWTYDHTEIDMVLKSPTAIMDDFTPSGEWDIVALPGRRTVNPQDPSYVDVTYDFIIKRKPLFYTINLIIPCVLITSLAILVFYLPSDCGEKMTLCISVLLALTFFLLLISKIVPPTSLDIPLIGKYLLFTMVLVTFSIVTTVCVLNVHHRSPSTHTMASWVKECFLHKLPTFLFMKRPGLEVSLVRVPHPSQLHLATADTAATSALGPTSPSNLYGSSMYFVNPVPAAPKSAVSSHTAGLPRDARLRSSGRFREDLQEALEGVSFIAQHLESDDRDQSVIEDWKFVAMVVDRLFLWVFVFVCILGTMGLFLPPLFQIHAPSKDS
T1 sequence (Q8BMN3 31-464 partner): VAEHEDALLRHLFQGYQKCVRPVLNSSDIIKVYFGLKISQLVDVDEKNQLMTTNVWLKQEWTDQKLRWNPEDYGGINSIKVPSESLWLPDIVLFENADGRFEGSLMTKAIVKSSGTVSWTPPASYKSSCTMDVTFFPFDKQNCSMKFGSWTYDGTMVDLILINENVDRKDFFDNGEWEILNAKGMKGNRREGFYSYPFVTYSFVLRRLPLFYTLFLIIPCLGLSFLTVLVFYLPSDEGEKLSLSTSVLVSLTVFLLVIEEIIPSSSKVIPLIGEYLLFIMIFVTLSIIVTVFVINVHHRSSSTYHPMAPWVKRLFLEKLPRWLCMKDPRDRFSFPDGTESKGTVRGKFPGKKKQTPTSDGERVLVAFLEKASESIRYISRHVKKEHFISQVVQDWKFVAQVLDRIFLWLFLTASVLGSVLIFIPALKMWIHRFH
Description: (§5) Two-Electrode Voltage-Clamp Electrophysiology. Stage V to VI X. laevis oocytes were isolated as described previously (Quick and Lester, Ion Channels of Excitable Cells, Narahashi T ed., pp 261-279, 1994). Stock RNAs were diluted into diethyl pyrocarbonatetreated water and injected 1 day after isolation. RNA was injected in a final volume of 50 nl per oocyte using a digital microdispenser (Drummond Scientific, Broomall, Pa.). After injection, oocytes were incubated in ND-96 solution (96 mM NaCl, 2 mM KCl, 1 mM CaCl2, 1 mM MgCl2, and 5 mM HEPES/NaOH, pH 7.6) supplemented with 50 μg/ml gentamicin and 2.5 mM sodium pyruvate. After 1 to 4 days for nAChR expression, oocytes were used for recording or confocal microscopy.
(§6) Agonist-activated nicotinic receptor responses were measured by two-electrode voltage-clamp recording using a GeneClamp 500 (Molecular Devices, Sunnyvale, Calif.) voltage clamp. Electrodes were constructed from Kwik-Fil borosilicate glass capillary tubes (1B150F-4; WPI, Sarasota, Fla.) using a programmable microelectrode puller (P-87; Sutter Instrument Company, Novato, Calif.). The electrodes had tip resistances of 0.8 to 2.0 MΩ after filling with 3 M KCl. […]

α4Yβ2 receptors = format: cell-based, mouse
α3β4 receptors = biological target: T2, α3β4 receptors (UniProt P12392+P32297); experiment: Two-electrode voltage clamp, X. laevis oocytes, α3β4; format: cell-based
T2 construct: expressed in transfected cells; host or cells: Xenopus laevis oocytes injected with cRNA
T2 sequence (P32297 32-505): as the sequence (P32297 32-505) above
T2 sequence (P12392 21-495): as the sequence (P12392 21-495) above
Description: as §5, §6

[1] = biological target: tonically active α6^L9′S channels in VTA DA neurons (Mus musculus, UniProt Q9ERK7+Q9R0W9, L280S); format: cell-based
tonically active α6^L9′S channels in VTA DA neurons, sequence (Q9ERK7 whole entry, looked up, stated change not applied): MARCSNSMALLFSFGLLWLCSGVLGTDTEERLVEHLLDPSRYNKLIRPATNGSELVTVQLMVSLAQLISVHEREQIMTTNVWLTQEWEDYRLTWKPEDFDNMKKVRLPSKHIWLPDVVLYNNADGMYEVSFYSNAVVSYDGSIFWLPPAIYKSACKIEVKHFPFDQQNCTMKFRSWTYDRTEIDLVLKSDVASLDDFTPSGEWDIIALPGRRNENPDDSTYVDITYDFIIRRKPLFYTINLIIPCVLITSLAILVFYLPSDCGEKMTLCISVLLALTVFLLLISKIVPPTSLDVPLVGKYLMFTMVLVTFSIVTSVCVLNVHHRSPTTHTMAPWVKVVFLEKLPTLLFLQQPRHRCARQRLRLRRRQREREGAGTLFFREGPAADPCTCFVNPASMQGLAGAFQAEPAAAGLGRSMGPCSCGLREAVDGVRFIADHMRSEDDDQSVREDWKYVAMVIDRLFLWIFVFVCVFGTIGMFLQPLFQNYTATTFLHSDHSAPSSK
tonically active α6^L9′S channels in VTA DA neurons, sequence (Q9R0W9 whole entry, looked up, stated change not applied): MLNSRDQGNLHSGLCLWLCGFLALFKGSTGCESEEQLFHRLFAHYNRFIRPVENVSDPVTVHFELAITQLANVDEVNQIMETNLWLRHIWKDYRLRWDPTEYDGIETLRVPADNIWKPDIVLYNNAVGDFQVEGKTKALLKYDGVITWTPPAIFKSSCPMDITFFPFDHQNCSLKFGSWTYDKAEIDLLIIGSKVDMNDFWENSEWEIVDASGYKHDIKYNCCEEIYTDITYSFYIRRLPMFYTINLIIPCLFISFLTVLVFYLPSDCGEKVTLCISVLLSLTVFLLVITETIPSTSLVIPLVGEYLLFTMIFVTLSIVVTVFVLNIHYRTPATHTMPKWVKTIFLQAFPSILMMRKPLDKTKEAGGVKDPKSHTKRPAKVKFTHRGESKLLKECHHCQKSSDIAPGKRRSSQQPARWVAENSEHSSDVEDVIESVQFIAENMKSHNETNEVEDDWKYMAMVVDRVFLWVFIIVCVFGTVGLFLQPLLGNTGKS

[2] = biological target: hypersensitive nicotinic receptors in α6L9′S VTA DA neurons (Mus musculus, UniProt Q9ERK7+Q9R0W9, L280S); format: cell-based
hypersensitive nicotinic receptors in α6L9′S VTA DA neurons, sequence (Q9ERK7 whole entry, looked up, stated change not applied): as the sequence (Q9ERK7 whole entry, looked up, stated change not applied) above
hypersensitive nicotinic receptors in α6L9′S VTA DA neurons, sequence (Q9R0W9 whole entry, looked up, stated change not applied): as the sequence (Q9R0W9 whole entry, looked up, stated change not applied) above

[3] = test system: striatal (ST and OT combined) synaptosomes
Description: as §1, §2, §3

α6* nAChRs [4] = biological target: T3, α6* nAChRs (Mus musculus, UniProt Q9ERK7+Q9R0W9); experiment: biochemical; format: biochemical
T3 construct: from tissue
T3 sequence (Q9R0W9 31-494): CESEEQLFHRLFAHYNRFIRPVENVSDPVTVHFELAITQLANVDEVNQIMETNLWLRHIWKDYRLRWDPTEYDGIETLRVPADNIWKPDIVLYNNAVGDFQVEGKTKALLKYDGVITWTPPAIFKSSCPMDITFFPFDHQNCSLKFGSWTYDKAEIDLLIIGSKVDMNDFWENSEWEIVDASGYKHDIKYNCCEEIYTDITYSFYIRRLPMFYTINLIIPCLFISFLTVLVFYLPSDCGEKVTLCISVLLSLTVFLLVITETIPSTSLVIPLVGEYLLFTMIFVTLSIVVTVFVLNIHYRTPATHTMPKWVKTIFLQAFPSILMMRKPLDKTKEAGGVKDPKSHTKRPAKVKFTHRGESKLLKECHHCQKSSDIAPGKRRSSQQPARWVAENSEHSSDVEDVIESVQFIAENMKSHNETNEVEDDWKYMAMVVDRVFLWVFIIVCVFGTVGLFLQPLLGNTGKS
T3 sequence (Q8BMN3 31-464, further chain): as the sequence (Q8BMN3 31-464 partner) above
T3 sequence (Q9ERK7 26-501): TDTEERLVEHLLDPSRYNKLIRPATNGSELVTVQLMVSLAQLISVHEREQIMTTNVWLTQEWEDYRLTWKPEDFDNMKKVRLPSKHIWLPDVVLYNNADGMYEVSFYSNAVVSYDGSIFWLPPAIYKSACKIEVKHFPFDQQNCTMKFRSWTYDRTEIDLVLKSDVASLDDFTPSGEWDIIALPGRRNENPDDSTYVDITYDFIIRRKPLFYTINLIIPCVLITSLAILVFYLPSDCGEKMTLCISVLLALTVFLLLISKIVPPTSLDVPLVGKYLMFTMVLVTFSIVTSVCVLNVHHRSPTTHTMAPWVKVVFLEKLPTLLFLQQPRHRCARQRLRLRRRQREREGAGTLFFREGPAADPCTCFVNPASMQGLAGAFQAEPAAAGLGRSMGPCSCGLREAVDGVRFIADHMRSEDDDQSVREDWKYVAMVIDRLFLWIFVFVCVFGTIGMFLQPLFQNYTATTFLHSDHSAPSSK
Description: as §1, §2, §3

α4β2* (non-α6) nAChRs = biological target: T4, α4β2* (non-α6) nAChRs (Mus musculus, UniProt O70174+Q9ERK7); experiment: biochemical; format: biochemical; details: for EC50: read-out: EC50 (±SEM), MII-resistant DA release
T4 construct: from tissue; host or cells: striatal / olfactory tubercle synaptosomes of WT and α6L9′S mice
T4 sequence (Q9ERK7 26-501): as above
T4 sequence (O70174 31-629): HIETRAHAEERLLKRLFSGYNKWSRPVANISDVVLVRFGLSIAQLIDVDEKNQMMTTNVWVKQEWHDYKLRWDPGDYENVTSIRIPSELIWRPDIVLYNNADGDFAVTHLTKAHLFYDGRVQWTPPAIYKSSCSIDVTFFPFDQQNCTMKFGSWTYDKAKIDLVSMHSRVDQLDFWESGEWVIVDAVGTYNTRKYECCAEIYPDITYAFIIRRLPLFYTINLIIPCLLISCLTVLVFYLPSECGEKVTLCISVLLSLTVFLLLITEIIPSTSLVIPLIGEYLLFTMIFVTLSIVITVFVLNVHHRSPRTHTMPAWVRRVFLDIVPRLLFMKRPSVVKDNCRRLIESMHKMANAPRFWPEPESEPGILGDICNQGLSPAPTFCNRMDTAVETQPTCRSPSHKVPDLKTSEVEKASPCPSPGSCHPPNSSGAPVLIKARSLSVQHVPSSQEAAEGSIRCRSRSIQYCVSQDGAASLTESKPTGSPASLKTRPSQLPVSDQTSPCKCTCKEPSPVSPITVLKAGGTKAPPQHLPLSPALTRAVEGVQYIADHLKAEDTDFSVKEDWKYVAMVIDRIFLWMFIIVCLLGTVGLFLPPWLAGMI
Description: as §1, §2, §3

α6* nAChRs [5] = biological target: T5, α6* nAChRs (Mus musculus, UniProt Q9ERK7+Q9R0W9, L280S); experiment: biochemical; format: biochemical
T5 construct: from tissue
T5 sequence (Q9ERK7 26-501, stated change not applied): as the sequence (Q9ERK7 26-501) above
T5 sequence (Q8BMN3 31-464, further chain): as the sequence (Q8BMN3 31-464 partner) above
T5 sequence (Q9R0W9 31-494 L280S): as the sequence (Q9R0W9 31-494) above, with L250S counted along it
Description: as §1, §2, §3

N2a cells = experiment: TIRF imaging of actin-containing membrane protrusions in N2a cells; format: cell-based, mouse
Description: TIRF Microscopy. N2a cells cultured in glass-bottomed, polyethylenimine-coated imaging dishes were transfected with cDNA mixtures as described above. Cells, superfused with the same imaging solution used for confocal microscopy, were imaged 18 to 24 h after transfection to minimize overexpression artifacts. TIRF images were obtained with an inverted microscope (Olympus IX71; Olympus America, Inc., Center Valley, Pa.) equipped with a 488-nm air-cooled argon laser (P/N IMA111040ALS; Melles Griot, Carlsbad, Calif.). Laser output was controlled with a UNIBLITZ shutter system and drive unit (P/N VMM-D1; Vincent Associates, Rochester, N.Y.) equipped with a Mitutoyo (Mitutoyo America, City of Industry, CA) micrometer to control TIRF evanescent field illumination. TIRF imaging was carried out with an Olympus PlanApo 100×1.45 NA oil objective, and images were captured with a 16-bit resolution Photometrics Cascade charge-coupled device camera (Photometrics, Tucson, Ariz.) controlled by SlideBook 4.0 imaging software (Intelligent Imaging Innovations, Santa Monica, Calif.).

LC neurons (α6* nAChRs) = format: cell-based, mouse

## c1cncc(C2CC3CCN2CC3)c1 (racemic) [TC 2429]
nAChRs
  %10 μM nic, Total DA release: 49.0% and 73.40% and 71.00%
  Rmax (±SEM), Total DA release: 8.68 ± 1.25 and 12.87 ± 0.37 and 11.86 ± 0.41
WT mice
  locomotor suppression: did not produce locomotor suppression
α6^L9′S mice
  locomotor activity: stimulated locomotor activity

## CC(=O)OCC[N+](C)(C)C [ACh, acetylcholine]
α3β4β3 receptors
  EC50: 230000 ± 22000 nM
α4Yβ2 receptors
  voltage-clamped responses: 200-400 pA
α3β4 receptors
  EC50: 165000 ± 9000 nM

## N#Cc1cc2c(cc1[N+](=O)[O-])=NC(=O)C(=O)N=2 [CNQX, 6-cyano-7-nitroquinoxaline-2,3-dione]
[1]
  effect on increased channel/membrane noise: No effect
[2]
  block of whole-cell responses to 1 μM nicotine: unaffected

## CO[C@H]1CC=C2CCN3CCC4=C(CC(=O)OC4)[C@]23C1 [DHβE, dihydro-β-erythroidine]
[1]
  effect on increased channel/membrane noise: completely eliminated
[2]
  block of whole-cell responses to 1 μM nicotine: 100%

## [K+] [K^+]
[3]
  GABA release stimulated by 20 mM K^+: 8.31 ± 0.34 and 8.24 ± 0.45 and 8.43 ± 0.50

## CCN1C[C@]2(COC(=O)c3ccccc3N3C(=O)C[C@H](C)C3=O)CC[C@H](OC)[C@@]34[C@@H]5C[C@H]6[C@H](OC)[C@@H]5[C@](O)(C[C@@H]6OC)[C@@](O)([C@@H](OC)[C@H]23)[C@@H]14 [MLA, methyllycaconitine]
[2]
  block of whole-cell responses to 1 μM nicotine: 0%

## CNCC/C=C/c1cccnc1 [TC 2403]
nAChRs
  %10 μM nic, Total DA release: 74.11% and 54.47% and 51.19%
  Rmax (±SEM), Total DA release: 10.72 ± 0.61 and 10.57 ± 0.74
  EC50: 700 nM and 820 nM
nAChRs; ST/OT, WT
  Rmax (±SEM), Total DA release: 12.37 ± 0.93
  EC50: 2360 ± 560 nM
nAChRs; striatal synaptosomes
  potency and efficacy for DA release, α6^L9′S relative to WT: slightly more potent and had equivalent efficacy
α6* nAChRs [4]
  %10 μM nic, MII-sensitive DA release: 28.83%
  agonist character at α6β2* for DA release (vs. nicotine): no activity
α6* nAChRs [4]; ST/OT, WT
  Rmax (±SEM), MII-sensitive DA release: 0.47 ± 0.2
α6* nAChRs [4]; ST/OT, WT, read-out: EC50 (±SEM), MII-sensitive DA release
  EC50: 60 ± 180 nM
α4β2* (non-α6) nAChRs
  %10 μM nic, MII-resistant DA release: 81.78% and 81.48% and 90.64%
  Rmax (±SEM), MII-resistant DA release: 7.26 ± 0.29 and 9.3 ± 0.33
  agonist character at α4β2 for DA release (vs. nicotine): full agonist (vs. nicotine)
  EC50: 3530 nM and 4030 nM
α4β2* (non-α6) nAChRs; ST/OT, WT
  Rmax (±SEM), MII-resistant DA release: 12.32 ± 0.26
  EC50: 2850 ± 350 nM
α6* nAChRs [5]
  %10 μM nic, MII-sensitive DA release: 44.85% and 33.01%
  Rmax (±SEM), MII-sensitive DA release: 4.83 ± 0.15 and 3.43 ± 0.32
  agonist character at the αCtxMII-sensitive receptor: partial agonist
α6* nAChRs [5]; read-out: EC50 (±SEM), MII-sensitive DA release
  EC50: 190 nM and 100 nM
α6^L9′S mice
  locomotor activity: slight locomotor activation

## NC1=N[C@H](O)[C@H]2[C@H]3O[C@]4(O)O[C@@H]([C@@H](O)[C@@]2(N1)[C@@H]4O)[C@]3(O)CO [TTX, tetrodotoxin]
[1]
  effect on increased channel/membrane noise: No effect
[2]
  block of whole-cell responses to 1 μM nicotine: unaffected

## C/C1=C/C(=O)O[C@@H]2C[C@@H](CC[C@H](C)/C=C\CC1)O[C@@](O)([C@@H]1CSC(=O)N1)C2 [latrunculin B]
N2a cells
  effect on actin-containing membrane protrusions: destroyed

## CNC1(C)C2CCC(C2)C1(C)C (stereo not drawn) [mecamylamine]
α6^L9′S mice
  effect of antagonist pre-injection on nicotine-stimulated locomotor response: strong block of the locomotor response

## COc1cc2nc(N3CCN(C(=O)c4ccco4)CC3)nc(N)c2cc1OC [prazosin]
α6^L9′S mice
  effect of antagonist pre-injection on nicotine-stimulated locomotor response: no change was found

## CCN1CCCC1CNC(=O)c1cc(S(N)(=O)=O)ccc1OC (stereo not drawn) [sulpiride]
α6^L9′S mice
  effect of antagonist pre-injection on nicotine-stimulated locomotor response: partially inhibited
VTA DA neurons
  baseline firing of VTA DA cells: modestly increase baseline firing
  effect on nicotine-induced increases in firing: did not affect

## COC(=O)[C@@H]1[C@H]2C[C@H]3c4[nH]c5ccccc5c4CCN3C[C@@H]2CC[C@@H]1O [yohimbine]
α6^L9′S mice
  effect of antagonist pre-injection on nicotine-stimulated locomotor response: no change was found

## picrotoxin
[1]
  effect on increased channel/membrane noise: No effect

## α-conotoxin MII [αCtxMII]
[1]
  effect on increased channel/membrane noise: completely eliminated
LC neurons (α6* nAChRs)
  inhibition of nicotine responses in LC neurons: sensitive to αCtxMII
[2]
  block of whole-cell responses to 1 μM nicotine: > 90%
  persistence of block after washout: 30 min
